Source: ChEMBL document CHEMBL1201862, “PubChem BioAssay data set” (2004)
Activity calls are given as the source filed them.

What was measured:
[1] = molecular target: T1, High affinity choline transporter 1 (Homo sapiens, UniProt Q9GZV3); assay: human choline transporter blockers, potency – cell-based, 5-point CRC, membrane potential dye, dose response (AID 504840); assay type: functional
[2] = molecular target: T1, High affinity choline transporter 1; assay: human choline transporter blockers, potency – cell-based, 10-point CRC, membrane potential dye, dose response (AID 588401); assay type: functional;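 also: membrane potential dye fluorescence of choline-evoked depolarization via CHT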
Large T antigen = Large T antigen (Simian virus 40, UniProt P03070); assay type: functional, Betapolyomavirus macacae;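 also: Confirmatory-stage PubChem screen for compounds that inhibit SV40 T antigen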
[3] = molecular target: T2, DNA dC->dU-editing enzyme APOBEC-3A (Homo sapiens, UniProt P31941); assay: A3A deaminase inhibition for selectivity – biochemical, dose response (AID 504722); assay type: functional
T2 sequence (P31941 whole entry): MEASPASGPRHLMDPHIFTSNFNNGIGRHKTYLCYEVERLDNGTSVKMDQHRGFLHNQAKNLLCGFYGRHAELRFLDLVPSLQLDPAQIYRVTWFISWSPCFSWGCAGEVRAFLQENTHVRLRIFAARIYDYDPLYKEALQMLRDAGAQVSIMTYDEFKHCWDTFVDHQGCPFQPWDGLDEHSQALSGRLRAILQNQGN

[4] = molecular target: T3, DNA dC->dU-editing enzyme APOBEC-3G (Homo sapiens, UniProt Q9HC16); assay: Dose Response confirmation of small molecule APOBEC3G DNA Deaminase Inhibitors via a fluorescence-based single-stranded DNA deaminase assay. [Related pubchem assays (depositor defined):AID493012, AID493028]; assay type: functional
T3 sequence (Q9HC16 whole entry): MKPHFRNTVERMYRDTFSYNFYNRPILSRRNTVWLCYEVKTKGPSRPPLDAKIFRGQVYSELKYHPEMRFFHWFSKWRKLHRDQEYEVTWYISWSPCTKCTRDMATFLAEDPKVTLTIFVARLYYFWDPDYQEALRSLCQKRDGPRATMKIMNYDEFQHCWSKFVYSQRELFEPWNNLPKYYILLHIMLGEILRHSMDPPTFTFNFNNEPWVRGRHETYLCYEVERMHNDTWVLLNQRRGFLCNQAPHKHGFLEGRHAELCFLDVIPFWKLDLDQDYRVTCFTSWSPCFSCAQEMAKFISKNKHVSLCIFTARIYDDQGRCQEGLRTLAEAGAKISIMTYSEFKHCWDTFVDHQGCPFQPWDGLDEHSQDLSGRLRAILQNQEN

[5] = molecular target: T2, DNA dC->dU-editing enzyme APOBEC-3A; assay: SAR analysis of small molecule inhibitors of APOBEC3A DNA Deaminase via a fluorescence-based single-stranded DNA deaminase assay - Set 2.; assay type: functional; conditions: read-out: IC50_Mean
[6] = molecular target: T3, DNA dC->dU-editing enzyme APOBEC-3G; assay: SAR analysis of small molecule inhibitors of APOBEC3G DNA Deaminase via a fluorescence-based single-stranded DNA deaminase assay - Set 2.; assay type: functional; conditions: read-out: IC50_Mean
[7] = test system: Streptococcus sp. 'group A'; assay: Streptococcus pyogenes SK(-)GAS viability under kanamycin – luminescence, BacTiterGlo, confirmation, counter-screen for streptokinase expression inhibitor project, dose response (AID 1900); assay type: functional, organism-based
Streptokinase A = molecular target: T4, Streptokinase A (Streptococcus pyogenes serotype M1, UniProt P10520); assay: viability-normalized secreted streptokinase activity reduction – plasminogen activation absorbance, OD405, dose response (AID 1914); assay type: functional, Streptococcus pyogenes M1 GAS;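 also: secreted streptokinase activity via plasminogen activation per viability signal from cell pellet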
T4 sequence (P10520 whole entry): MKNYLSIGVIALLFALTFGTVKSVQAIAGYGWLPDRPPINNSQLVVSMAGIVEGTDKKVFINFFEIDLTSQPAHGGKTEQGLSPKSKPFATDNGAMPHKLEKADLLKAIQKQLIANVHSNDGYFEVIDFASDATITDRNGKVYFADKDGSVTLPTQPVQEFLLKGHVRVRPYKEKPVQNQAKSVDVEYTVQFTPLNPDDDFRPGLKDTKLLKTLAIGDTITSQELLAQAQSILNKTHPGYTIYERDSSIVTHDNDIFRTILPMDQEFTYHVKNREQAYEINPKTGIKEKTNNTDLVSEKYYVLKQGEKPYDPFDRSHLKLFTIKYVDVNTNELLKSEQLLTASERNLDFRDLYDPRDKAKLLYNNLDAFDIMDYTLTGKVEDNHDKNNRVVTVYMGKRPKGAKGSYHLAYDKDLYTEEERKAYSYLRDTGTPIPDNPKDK

NS3 = NS3 (Hepatitis C virus, UniProt A3EZJ3); assay: PubChem AID 2173; design: species or system Hepacivirus hominis
Streptococcus = assay: GAS UMAA2166 growth inhibition – luminescence, BacTiterGlo, counter-screen for streptokinase expression inhibitor project, dose response (AID 1915); assay type: functional, organism-based;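 also: potency for reduction of bacterial viability or growth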
DNA topoisomerase = DNA topoisomerase (Yersinia pestis, UniProt A0A2S9PM60); assay: Yersinia topoisomerase I cleavage product accumulation – biochemical, cherry-pick, dose response (AID 588525)
DNA topoisomerase, sequence (A0A2S9PM60 whole entry): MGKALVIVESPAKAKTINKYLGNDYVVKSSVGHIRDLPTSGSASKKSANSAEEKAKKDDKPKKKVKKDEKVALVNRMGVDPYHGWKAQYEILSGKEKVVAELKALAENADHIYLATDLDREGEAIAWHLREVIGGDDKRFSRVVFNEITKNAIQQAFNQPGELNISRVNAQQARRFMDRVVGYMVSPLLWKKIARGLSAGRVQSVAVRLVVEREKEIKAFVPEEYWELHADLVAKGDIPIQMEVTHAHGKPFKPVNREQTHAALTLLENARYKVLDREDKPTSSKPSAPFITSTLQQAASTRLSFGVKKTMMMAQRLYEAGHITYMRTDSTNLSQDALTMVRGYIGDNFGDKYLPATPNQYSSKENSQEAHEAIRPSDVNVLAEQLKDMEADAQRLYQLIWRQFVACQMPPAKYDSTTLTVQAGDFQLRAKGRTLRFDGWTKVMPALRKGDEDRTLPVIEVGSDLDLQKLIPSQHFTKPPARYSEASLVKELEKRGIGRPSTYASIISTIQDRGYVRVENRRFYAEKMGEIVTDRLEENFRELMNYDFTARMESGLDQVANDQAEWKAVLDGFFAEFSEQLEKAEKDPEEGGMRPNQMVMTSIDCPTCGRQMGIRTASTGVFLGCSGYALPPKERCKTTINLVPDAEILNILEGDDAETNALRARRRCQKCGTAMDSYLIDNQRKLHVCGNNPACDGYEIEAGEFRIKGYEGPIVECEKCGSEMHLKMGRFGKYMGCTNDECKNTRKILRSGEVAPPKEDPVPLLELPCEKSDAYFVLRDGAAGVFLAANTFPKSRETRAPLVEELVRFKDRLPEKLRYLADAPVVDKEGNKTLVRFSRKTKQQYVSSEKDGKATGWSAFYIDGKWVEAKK

Vero = assay: viability of Vero cells under compound – cytotoxicity control for flavivirus capping enzyme inhibitors (AID 588742); assay type: functional; conditions: Chlorocebus sabaeus
Genome polyprotein = Genome polyprotein (dengue virus type 2, UniProt P29990); assay: flavivirus cap methylation enzyme inhibition – biochemical, confirmation dose response, primary screen (AID 588689); assay type: functional
Genome polyprotein, sequence (P29990 2492-3391 limits assumed): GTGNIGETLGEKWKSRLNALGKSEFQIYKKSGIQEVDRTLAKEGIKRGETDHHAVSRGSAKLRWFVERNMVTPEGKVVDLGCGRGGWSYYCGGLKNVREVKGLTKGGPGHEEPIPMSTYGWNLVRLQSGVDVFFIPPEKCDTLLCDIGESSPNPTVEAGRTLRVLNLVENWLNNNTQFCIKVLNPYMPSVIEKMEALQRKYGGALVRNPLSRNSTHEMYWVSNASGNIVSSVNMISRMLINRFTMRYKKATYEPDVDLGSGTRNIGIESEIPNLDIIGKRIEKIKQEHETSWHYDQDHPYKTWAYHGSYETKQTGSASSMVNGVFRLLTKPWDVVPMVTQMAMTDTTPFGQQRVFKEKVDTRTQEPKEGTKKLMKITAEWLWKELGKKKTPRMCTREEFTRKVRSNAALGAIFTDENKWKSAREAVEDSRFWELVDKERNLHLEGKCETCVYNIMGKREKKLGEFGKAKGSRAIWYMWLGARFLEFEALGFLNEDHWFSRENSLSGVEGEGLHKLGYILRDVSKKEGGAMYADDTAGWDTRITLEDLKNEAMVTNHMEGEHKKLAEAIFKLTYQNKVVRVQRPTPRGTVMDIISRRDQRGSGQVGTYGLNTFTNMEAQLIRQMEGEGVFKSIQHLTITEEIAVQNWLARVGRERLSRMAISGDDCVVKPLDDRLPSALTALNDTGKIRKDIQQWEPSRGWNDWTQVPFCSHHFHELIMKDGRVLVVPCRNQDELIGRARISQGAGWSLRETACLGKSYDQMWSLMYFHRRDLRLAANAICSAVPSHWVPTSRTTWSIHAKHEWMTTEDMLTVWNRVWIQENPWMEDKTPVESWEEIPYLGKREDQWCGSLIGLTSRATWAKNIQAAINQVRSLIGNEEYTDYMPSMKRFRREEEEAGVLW

[8] = molecular target: Beta-adrenergic receptor kinase 1 (Homo sapiens, UniProt P25098); assay: aptamer displacement from bead-bound GRK2 – biochemical, cherry pick 1, bead flow cytometry, dose response (AID 504500)
[9] = molecular target: T5, Carboxy-terminal domain RNA polymerase II polypeptide A small phosphatase 1 (Homo sapiens, UniProt Q9GZU7); assay: CTDSP1 inhibitors, concentration-response, biochemical, absorbance readout, ultra-high-throughput screen actives (AID 540297); assay type: functional
T5 sequence (Q9GZU7 whole entry): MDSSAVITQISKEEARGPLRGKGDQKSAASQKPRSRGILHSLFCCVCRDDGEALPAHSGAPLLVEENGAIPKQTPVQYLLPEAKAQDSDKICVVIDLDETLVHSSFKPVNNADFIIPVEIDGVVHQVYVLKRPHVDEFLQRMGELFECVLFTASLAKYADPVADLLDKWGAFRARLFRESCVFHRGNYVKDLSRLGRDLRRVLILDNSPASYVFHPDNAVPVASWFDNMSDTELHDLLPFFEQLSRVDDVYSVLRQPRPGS

Melanocortin receptor 4 = Melanocortin receptor 4 (Homo sapiens, UniProt P32245); assay: inhibitors of MC4R cAMP signaling – cell-based, TR-FRET, biased antagonists, dose response (AID 602298); assay type: functional;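 also: antagonist potency against agonist-stimulated cAMP production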
[10] = molecular target: 26S proteasome non-ATPase regulatory subunit 14 (Homo sapiens, UniProt O00487); assay: inhibition of proteasome subunit RPN11 – biochemical, fluorescence polarization, uHTS hits, confirmation (AID 602368); assay type: functional
26S proteasome non-ATPase regulatory subunit 14, sequence (O00487 whole entry): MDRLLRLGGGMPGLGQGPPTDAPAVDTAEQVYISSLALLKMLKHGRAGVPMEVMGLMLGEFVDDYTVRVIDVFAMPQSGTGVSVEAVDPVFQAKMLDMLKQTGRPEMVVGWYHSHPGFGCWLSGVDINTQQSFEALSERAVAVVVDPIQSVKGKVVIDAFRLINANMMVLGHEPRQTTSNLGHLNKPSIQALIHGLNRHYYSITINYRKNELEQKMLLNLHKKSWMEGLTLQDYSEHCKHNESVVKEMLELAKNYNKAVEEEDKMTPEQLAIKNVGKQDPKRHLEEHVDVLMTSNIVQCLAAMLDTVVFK

[11] = molecular target: 72 kDa type IV collagenase (Homo sapiens, UniProt P08253); assay: Dose Response validation of uHTS RPN11 inhibitor hits using a MMP-2 Fluorescence assay.; assay type: functional
[12] = cAMP pathway inhibition in counterscreen cell line – TR-FRET cAMP detection, counter-screen for MC4R biased antagonist project, dose response (AID 602305); assay type: functional, cell-based;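 also: U2OS cells stimulated with forskolin near its EC80 as the cAMP inducer; potency is for inhibition of forskolin-stimulated cAMP signaling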
Prothrombin = Prothrombin (Bos taurus, UniProt P00735); assay: thrombin protease inhibitors – biochemical, fluorescence polarization, uHTS hits, dose response (AID 602369); assay type: functional
[13] = molecular target: Disintegrin and metalloproteinase domain-containing protein 17 (Homo sapiens, UniProt P78536); assay: exosite inhibitors of ADAM17, dose response, biochemical (AID 743260)
[14] = inhibition of ADAM10 peptide cleavage – biochemical, FRET peptide substrate, recombinant human ADAM10, selectivity assay for ADAM17 exosite inhibitor project, dose response (AID 743259);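 also: ADAM10 enzyme cleaving a FRET peptide substrate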
[15] = blockers of SFLLRN-triggered platelet ATP secretion – cell-based, human platelets, luminescence, dry powder, dose response (AID 493100); assay type: functional
[16] = Luminescence Cell-Based Dose Response Follow up to Identify Inhibitors of Platelet Dense Granule Release. [Related pubchem assays (depositor defined):AID1663, AID1678, AID2398]; assay type: functional
[17] = molecular target: Multidrug resistance protein CDR2 (Candida albicans (strain SC5314 / ATCC MYA-2876) (Yeast), UniProt P78595); assay: inhibition of Nile Red efflux via Candida CDR2 – S. cerevisiae AD1-8u, singleplex, Cherry Pick1 hits, dose response (AID 588604); assay type: functional
Multidrug resistance protein CDR2, sequence (P78595 whole entry): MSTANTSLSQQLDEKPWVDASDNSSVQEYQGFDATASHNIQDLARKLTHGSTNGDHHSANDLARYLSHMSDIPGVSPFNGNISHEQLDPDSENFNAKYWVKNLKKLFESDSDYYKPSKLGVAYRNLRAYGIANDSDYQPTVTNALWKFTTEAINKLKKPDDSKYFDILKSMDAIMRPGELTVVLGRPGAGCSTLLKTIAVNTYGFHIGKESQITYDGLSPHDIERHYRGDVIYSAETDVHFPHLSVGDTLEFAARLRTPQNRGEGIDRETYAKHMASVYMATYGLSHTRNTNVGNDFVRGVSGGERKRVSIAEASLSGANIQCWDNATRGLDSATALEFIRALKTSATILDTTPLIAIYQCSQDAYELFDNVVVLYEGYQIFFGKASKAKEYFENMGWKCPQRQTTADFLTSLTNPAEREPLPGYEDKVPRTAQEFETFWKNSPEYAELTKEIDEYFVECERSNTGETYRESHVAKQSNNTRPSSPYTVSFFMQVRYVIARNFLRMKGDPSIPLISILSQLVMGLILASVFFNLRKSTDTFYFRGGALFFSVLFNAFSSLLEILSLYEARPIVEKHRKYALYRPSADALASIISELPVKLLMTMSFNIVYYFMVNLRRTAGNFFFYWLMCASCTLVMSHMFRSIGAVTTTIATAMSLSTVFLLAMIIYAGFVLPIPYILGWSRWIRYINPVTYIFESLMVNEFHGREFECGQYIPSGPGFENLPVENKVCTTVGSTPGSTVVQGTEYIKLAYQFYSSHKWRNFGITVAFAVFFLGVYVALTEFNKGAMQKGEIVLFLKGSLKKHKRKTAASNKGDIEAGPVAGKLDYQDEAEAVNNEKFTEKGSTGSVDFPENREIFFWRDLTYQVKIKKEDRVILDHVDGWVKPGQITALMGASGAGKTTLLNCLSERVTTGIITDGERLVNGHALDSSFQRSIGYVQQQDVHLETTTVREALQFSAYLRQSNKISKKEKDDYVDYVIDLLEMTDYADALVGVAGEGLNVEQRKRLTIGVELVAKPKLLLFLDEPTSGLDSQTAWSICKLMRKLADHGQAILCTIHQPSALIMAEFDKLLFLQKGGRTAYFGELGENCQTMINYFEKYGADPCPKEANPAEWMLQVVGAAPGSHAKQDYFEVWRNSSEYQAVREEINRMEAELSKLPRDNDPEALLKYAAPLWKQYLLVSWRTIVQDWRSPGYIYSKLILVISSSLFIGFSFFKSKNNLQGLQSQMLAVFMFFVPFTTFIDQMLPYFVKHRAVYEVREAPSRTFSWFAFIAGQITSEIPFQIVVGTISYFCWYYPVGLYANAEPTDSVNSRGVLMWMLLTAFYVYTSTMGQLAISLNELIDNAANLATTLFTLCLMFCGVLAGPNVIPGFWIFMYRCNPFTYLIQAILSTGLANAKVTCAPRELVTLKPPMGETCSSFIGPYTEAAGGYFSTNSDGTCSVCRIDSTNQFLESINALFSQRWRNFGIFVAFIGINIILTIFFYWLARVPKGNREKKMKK

Phospholipase D1 = Phospholipase D1 (Homo sapiens, UniProt Q13393); assay: cellular phospholipase D1 inhibition IC50 – cell-based, dose response (AID 602151); assay type: functional;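 also: cellular PLD1 assay in Calu-1 cells stimulated with PMA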
Phospholipase D2 = Phospholipase D2 (Homo sapiens, UniProt O14939); assay: cellular phospholipase D2 inhibition IC50 – cell-based, dose response (AID 602147); assay type: functional;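 also: cellular assay in HEK293 cells overexpressing GFP-tagged PLD2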
[18] = molecular target: Tyrosine-protein kinase JAK2 (Homo sapiens, UniProt O60674); assay type: functional;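 also: JAK2 tested as one member of a kinase panel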
[19] = molecular target: Serine/threonine-protein kinase Chk1 (Homo sapiens, UniProt O14757); assay type: functional;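 also: measured as one member of a kinome-wide kinase profiling panel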
[20] = molecular target: Dual specificity mitogen-activated protein kinase kinase 1 (Homo sapiens, UniProt Q02750); assay: Navigating the Kinome. Panel member name: MAP2K1; assay type: functional
[21] = molecular target: 5'-AMP-activated protein kinase catalytic subunit alpha-1 (Homo sapiens, UniProt Q13131); assay type: functional
[22] = molecular target: Tyrosine-protein kinase BTK (Homo sapiens, UniProt Q06187); assay type: functional
[23] = molecular target: Tyrosine-protein kinase Fer (Homo sapiens, UniProt P16591); assay type: functional;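 also: FER tested as one member of a kinome panel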
[24] = molecular target: STE20-like serine/threonine-protein kinase (Homo sapiens, UniProt Q9H2G2); assay type: functional
[25] = molecular target: Fibroblast growth factor receptor 3 (Homo sapiens, UniProt P22607); assay type: functional
[26] = molecular target: Dual specificity mitogen-activated protein kinase kinase 2 (Homo sapiens, UniProt P36507); assay: Navigating the Kinome. Panel member name: MAP2K2; assay type: functional
[27] = molecular target: Sphingosine 1-phosphate receptor 2 (Homo sapiens, UniProt O95136); assay: Late-stage fluorescence-based dose-response cell-based counterscreen assay to identify agonists of the Sphingosine 1-Phosphate Receptor 3 (S1P3): Sphingosine 1-Phosphate Receptor 2 (S1P2) agonist assay.; assay type: functional
[28] = molecular target: T6, Sphingosine 1-phosphate receptor 4 (Homo sapiens, UniProt O95977); assay: Late-stage fluorescence-based dose-response cell-based counterscreen assay to identify agonists of the Sphingosine 1-Phosphate Receptor 3 (S1P3): Sphingosine 1-Phosphate Receptor 4 (S1P4) agonist assay.; assay type: functional
T6 sequence (O95977 whole entry): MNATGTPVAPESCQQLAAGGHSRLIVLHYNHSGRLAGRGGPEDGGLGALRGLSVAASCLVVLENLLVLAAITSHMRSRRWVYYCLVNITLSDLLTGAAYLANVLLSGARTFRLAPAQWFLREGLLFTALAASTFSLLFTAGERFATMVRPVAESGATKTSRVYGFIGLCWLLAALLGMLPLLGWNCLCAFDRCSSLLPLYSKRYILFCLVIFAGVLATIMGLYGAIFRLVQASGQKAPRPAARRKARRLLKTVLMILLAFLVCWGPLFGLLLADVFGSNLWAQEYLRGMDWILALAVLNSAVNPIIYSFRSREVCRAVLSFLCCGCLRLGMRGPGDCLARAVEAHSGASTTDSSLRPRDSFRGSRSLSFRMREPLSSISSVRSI

[29] = molecular target: T7, V-type proton ATPase subunit c' (Saccharomyces cerevisiae S288c, UniProt P32842); assay: Dose Response with BCECF Assay for V-ATPase inhibitors that increase vacuolar pH, Powder Set 1.; assay type: functional; conditions: read-out: EC50_MICROM
T7 sequence (P32842 whole entry): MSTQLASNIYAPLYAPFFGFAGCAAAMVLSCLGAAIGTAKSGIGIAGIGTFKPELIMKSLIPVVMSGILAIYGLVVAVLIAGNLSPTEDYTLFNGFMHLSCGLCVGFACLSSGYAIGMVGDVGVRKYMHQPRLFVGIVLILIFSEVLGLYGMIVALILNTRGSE

[30] = molecular target: T7, V-type proton ATPase subunit c'; assay: Dose Response of Small Molecules that Regulate V-ATPase Proton Transport in Yeast using pHLuorin, Powder Set1.; assay type: functional; conditions: read-out: EC50_MICROM

T1 sequence (Q9GZV3 whole entry): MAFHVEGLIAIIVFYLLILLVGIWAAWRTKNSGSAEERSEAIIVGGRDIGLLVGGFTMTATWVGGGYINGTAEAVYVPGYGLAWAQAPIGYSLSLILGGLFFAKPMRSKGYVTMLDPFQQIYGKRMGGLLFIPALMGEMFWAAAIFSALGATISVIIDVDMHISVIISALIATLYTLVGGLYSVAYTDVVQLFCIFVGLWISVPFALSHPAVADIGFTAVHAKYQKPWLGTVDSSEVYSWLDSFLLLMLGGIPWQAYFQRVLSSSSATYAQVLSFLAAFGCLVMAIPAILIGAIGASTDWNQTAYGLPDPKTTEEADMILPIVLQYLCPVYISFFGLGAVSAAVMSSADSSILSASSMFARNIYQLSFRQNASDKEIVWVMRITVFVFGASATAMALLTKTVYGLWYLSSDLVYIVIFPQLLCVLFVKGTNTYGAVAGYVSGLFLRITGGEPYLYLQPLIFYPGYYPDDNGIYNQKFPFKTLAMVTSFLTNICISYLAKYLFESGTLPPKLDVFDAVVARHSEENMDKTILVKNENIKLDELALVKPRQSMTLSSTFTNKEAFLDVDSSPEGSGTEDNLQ

CCCCC1C(=O)CC[C@H]2[C@@H]1CC(=O)[C@@H]2C/C=C\CCCC(=O)O (stereo partly specified)
IC50 [1]: 2.13 µM (active) | IC50 [2]: 2.38 µM (active)

CCCn1c(=O)c2ccccc2n2c(=S)[nH]nc12
IC50 (Large T antigen): 18.2 µM (active) | IC50 [3]: > 100 µM (inactive) | IC50 [4]: 2.87 µM (active) | IC50 [5]: > 99 µM (inactive) | IC50 [6]: > 99 µM (inactive)

CCCOc1ccc(C(=O)C2=C(O)C(=O)N(c3ccccn3)C2c2ccc(OC)cc2)cc1C (stereo unspecified)
EC50 [7]: 3.78 µM (active) | EC50 (Streptokinase A): 103 µM (active) | IC50 (NS3): 5.74 µM (active) | EC50 (Streptococcus): 38.6 µM (active) | AC50 (DNA topoisomerase): 5.07 µM (active) | CC50 (Vero): > 40 µM (active) | IC50 (Genome polyprotein): 74.3 µM (active)

O=C(O)C1CC(=O)N(c2ccc3c(c2)OCCO3)C1 (stereo unspecified)
EC50 [8]: 30.9 µM (inactive) | IC50 [9]: 6.73 µM (active)

O=C(NN=Cc1ccc(N(CCCl)CCCl)cc1)C(=O)c1c[nH]c2ccccc12
IC50 (Melanocortin receptor 4): > 64.6 µM (inactive) | IC50 [10]: 25.5 µM (active) | IC50 [11]: > 100 µM (inactive) | IC50 [12]: > 64.6 µM (inactive) | IC50 (Prothrombin): 45.1 µM (active) | IC50 [13]: > 69.5 µM (inactive) | IC50 [14]: > 69.5 µM (inactive)

Cc1ccc(-c2c(C#N)c(N)n(-c3ccccc3C)c(=O)c2C#N)cc1
AC50 [15]: 12.6 µM (active) | EC50 [16]: 2.03 µM (active)

COc1ccc2c(-c3ccc(OCCN4CCOCC4)cc3)c(-c3ccccc3OC)sc2c1
EC50 [17]: 13.3 µM (active)

Cn1c(=O)n(C2CCN(CCNC(=O)c3ccc4ccccc4c3)CC2)c2ccccc21
IC50 (Phospholipase D1): 1.5 µM (active) | IC50 (Phospholipase D2): 1.9 µM (active)

COc1cc(OC)nc(N2Cc3ccccc3CC2C(=O)O)n1 (stereo unspecified)
Ki [18]: 2.51 µM (active) | Ki [19]: 0.794 µM (active)

Cc1cc(Nc2cc(N3CCN(C)CC3)nc(C=Cc3ccccc3)n2)n[nH]1
Ki [20]: 0.501 µM (active) | Ki [21]: 0.501 µM (active) | Ki [22]: 0.501 µM (active) | Ki [23]: 0.316 µM (active) | Ki [24]: 0.501 µM (active) | Ki [25]: 0.1 µM (active) | Ki [26]: 0.316 µM (active)

COc1ccc(-c2cc(C(=O)N(C3CCCCC3)C3CCCCC3)no2)cc1
EC50 [27]: > 50 µM (inactive) | EC50 [28]: > 50 µM (inactive)

O=C(c1ccc([N+](=O)[O-])o1)N1CCN(c2cccc(Cl)c2)CC1
EC50 [29]: 1.25 µM (active) | EC50 [30]: 12.4 µM (active)
